Species: Rattus norvegicus
Test: Open TG-GATES - Regimen: Daily Repeat
Type: toxicity, organism-based, Sprague-Dawley
Design: regimen Daily Repeat, gender Male, age 6 weeks
Conditions: in vivo, po, route gavage; for APTT / Bas / Eos / Fbg / Ht / Lym / MCH / MCHC / MCV / Mono / Neu / PT / Plat / RBC / Ret / WBC: tissue Blood; for KIDNEY_L / KIDNEY_R / KIDNEY_TOTAL: tissue Kidney; for LIVER: tissue Liver; for ALP / ALT / AST / BUN / CRE / Ca / Cl / DBIL / GLC / IP / K / LDH / Na / PL / RALB / TBIL / TC / TG / TP / gamma-GTP: tissue Plasma
[1] = 0 mg/kg, 72 h, dose level Control, time 3 day
[2] = 0 mg/kg, […], dose level Control, time 7 day
[3] = 0 mg/kg, […], dose level Control, time 14 day
[4] = 0 mg/kg, […], dose level Control, time 28 day
[5] = 10 mg/kg, 72 h, dose level Low, time 3 day
[6] = 10 mg/kg, […], dose level Low, time 7 day
[7] = 10 mg/kg, […], dose level Low, time 14 day
[8] = 10 mg/kg, […], dose level Low, time 28 day

## Cc1cccc(Nc2cc(Cl)nc(SCC(=O)O)n2)c1C [PIRINIXIC ACID]
[1]
  TERMINAL_BW: 233.5 g
  APTT: 16.4 s
  Bas: 0%
  Eos: 1.2%
  Fbg: 285 mg/dL
  Ht: 39.4%
  Lym: 75.2%
  MCH: 22.2 pg
  MCHC: 34.4%
  MCV: 64.7 fL
  Mono: 2.8%
  Neu: 20.2%
  PT: 12.3 s
  Plat: 109.1 x10_4/uL
  RBC: 609.4 x10_4/ul
  Ret: 7%
  WBC: 85.4 x10_2/uL
  KIDNEY_L: 1 g
  KIDNEY_R: 1 g
  KIDNEY_TOTAL: 1.9 g
  LIVER: 10.9 g
  ALP: 1563.4 IU/L
  ALT: 50 IU/L
  AST: 77 IU/L
  BUN: 15.8 mg/dL
  CRE: 0.2 mg/dL
  Ca: 10.8 mg/dL
  Cl: 105.4 meq/L
  DBIL: 0.024 mg/dL
  GLC: 201.2 mg/dL
  IP: 8.2 mg/dL
  K: 3.8 meq/L
  LDH: 80.4 IU/L
  Na: 143 meq/L
  PL: 155 mg/dL
  RALB: 2.6 g/dL
  TBIL: 0.032 mg/dL
  TC: 79.6 mg/dL
  TG: 92.8 mg/dL
  TP: 5.5 g/dL
  gamma-GTP: 1.6 IU/L
[2]
  TERMINAL_BW: 265.8 g
  APTT: 16.6 s
  Bas: 0%
  Eos: 0.4%
  Fbg: 312.6 mg/dL
  Ht: 40.4%
  Lym: 83.4%
  MCH: 21.7 pg
  MCHC: 34.7%
  MCV: 62.3 fL
  Mono: 2.2%
  Neu: 13.8%
  PT: 12.3 s
  Plat: 127.6 x10_4/uL
  RBC: 648.6 x10_4/ul
  Ret: 5.5%
  WBC: 89.6 x10_2/uL
  KIDNEY_L: 1.1 g
  KIDNEY_R: 1 g
  KIDNEY_TOTAL: 2.1 g
  LIVER: 12.4 g
  ALP: 1820.8 IU/L
  ALT: 48.8 IU/L
  AST: 67.6 IU/L
  BUN: 19.4 mg/dL
  CRE: 0.2 mg/dL
  Ca: 11 mg/dL
  Cl: 105 meq/L
  DBIL: 0.02 mg/dL
  GLC: 205.6 mg/dL
  IP: 7.1 mg/dL
  K: 4 meq/L
  LDH: 80 IU/L
  Na: 142.4 meq/L
  PL: 164.2 mg/dL
  RALB: 2.7 g/dL
  TBIL: 0.036 mg/dL
  TC: 80.8 mg/dL
  TG: 128.4 mg/dL
  TP: 5.9 g/dL
  gamma-GTP: 1 IU/L
[3]
  TERMINAL_BW: 320.3 g
  APTT: 15.5 s
  Bas: 0%
  Eos: 0.8%
  Fbg: 324.2 mg/dL
  Ht: 41.1%
  Lym: 77.6%
  MCH: 20.2 pg
  MCHC: 35.2%
  MCV: 57.3 fL
  Mono: 2.4%
  Neu: 18.6%
  PT: 12.4 s
  Plat: 119.6 x10_4/uL
  RBC: 716.8 x10_4/ul
  Ret: 4.1%
  WBC: 101.8 x10_2/uL
  KIDNEY_L: 1.2 g
  KIDNEY_R: 1.2 g
  KIDNEY_TOTAL: 2.5 g
  LIVER: 14.7 g
  ALP: 1141.6 IU/L
  ALT: 41.2 IU/L
  AST: 65.8 IU/L
  BUN: 16 mg/dL
  CRE: 0.2 mg/dL
  Ca: 10.6 mg/dL
  Cl: 105.2 meq/L
  DBIL: 0.016 mg/dL
  GLC: 202.4 mg/dL
  IP: 7.1 mg/dL
  K: 3.8 meq/L
  LDH: 78.8 IU/L
  Na: 143.4 meq/L
  PL: 139.6 mg/dL
  RALB: 2.8 g/dL
  TBIL: 0.03 mg/dL
  TC: 69 mg/dL
  TG: 117.4 mg/dL
  TP: 6 g/dL
  gamma-GTP: 1.2 IU/L
[4]
  TERMINAL_BW: 387.5 g
  APTT: 17.7 s
  Bas: 0%
  Eos: 1.2%
  Fbg: 284.6 mg/dL
  Ht: 44.2%
  Lym: 75%
  MCH: 19.8 pg
  MCHC: 35.6%
  MCV: 55.5 fL
  Mono: 2.4%
  Neu: 20.6%
  PT: 12.3 s
  Plat: 100.6 x10_4/uL
  RBC: 796.8 x10_4/ul
  Ret: 2.3%
  WBC: 82.2 x10_2/uL
  KIDNEY_L: 1.4 g
  KIDNEY_R: 1.3 g
  KIDNEY_TOTAL: 2.7 g
  LIVER: 15.5 g
  ALP: 955.2 IU/L
  ALT: 36.2 IU/L
  AST: 59.4 IU/L
  BUN: 14 mg/dL
  CRE: 0.2 mg/dL
  Ca: 10.7 mg/dL
  Cl: 106.6 meq/L
  DBIL: 0.018 mg/dL
  GLC: 199 mg/dL
  IP: 6.5 mg/dL
  K: 3.5 meq/L
  LDH: 48.8 IU/L
  Na: 144.2 meq/L
  PL: 139.6 mg/dL
  RALB: 2.8 g/dL
  TBIL: 0.064 mg/dL
  TC: 75.8 mg/dL
  TG: 90.4 mg/dL
  TP: 6.4 g/dL
  gamma-GTP: 1 IU/L
[5]
  TERMINAL_BW: 232.6 g
  APTT: 15.8 s
  Bas: 0%
  Eos: 1%
  Fbg: 215.2 mg/dL
  Ht: 39%
  Lym: 76.6%
  MCH: 21.6 pg
  MCHC: 34%
  MCV: 63.6 fL
  Mono: 2.6%
  Neu: 19.2%
  PT: 12.5 s
  Plat: 111.3 x10_4/uL
  RBC: 612.8 x10_4/ul
  Ret: 6.1%
  WBC: 76.7 x10_2/uL
  KIDNEY_L: 1 g
  KIDNEY_R: 1 g
  KIDNEY_TOTAL: 1.9 g
  LIVER: 14.4 g
  ALP: 2039.8 IU/L
  ALT: 60.6 IU/L
  AST: 81.6 IU/L
  BUN: 14.6 mg/dL
  CRE: 0.2 mg/dL
  Ca: 10.8 mg/dL
  Cl: 106 meq/L
  DBIL: 0.02 mg/dL
  GLC: 210 mg/dL
  IP: 7.5 mg/dL
  K: 4.1 meq/L
  LDH: 90 IU/L
  Na: 143.8 meq/L
  PL: 111.8 mg/dL
  RALB: 2.7 g/dL
  TBIL: 0.03 mg/dL
  TC: 55 mg/dL
  TG: 31.2 mg/dL
  TP: 5.4 g/dL
  gamma-GTP: 1.2 IU/L
[6]
  TERMINAL_BW: 276.5 g
  APTT: 17.8 s
  Bas: 0%
  Eos: 1%
  Fbg: 262.8 mg/dL
  Ht: 38.4%
  Lym: 76.4%
  MCH: 21.6 pg
  MCHC: 34.9%
  MCV: 61.8 fL
  Mono: 3.2%
  Neu: 19.2%
  PT: 12.6 s
  Plat: 130.2 x10_4/uL
  RBC: 621.6 x10_4/ul
  Ret: 5.9%
  WBC: 93.9 x10_2/uL
  KIDNEY_L: 1.2 g
  KIDNEY_R: 1.1 g
  KIDNEY_TOTAL: 2.3 g
  LIVER: 20.3 g
  ALP: 1837.8 IU/L
  ALT: 49.2 IU/L
  AST: 65.4 IU/L
  BUN: 18.4 mg/dL
  CRE: 0.2 mg/dL
  Ca: 11.2 mg/dL
  Cl: 102.4 meq/L
  DBIL: 0.014 mg/dL
  GLC: 202.6 mg/dL
  IP: 7.2 mg/dL
  K: 4.2 meq/L
  LDH: 98.8 IU/L
  Na: 142.2 meq/L
  PL: 148.6 mg/dL
  RALB: 3 g/dL
  TBIL: 0.026 mg/dL
  TC: 77.6 mg/dL
  TG: 60.4 mg/dL
  TP: 6.2 g/dL
  gamma-GTP: 1 IU/L
[7]
  TERMINAL_BW: 313.7 g
  APTT: 17.3 s
  Bas: 0.2%
  Eos: 1%
  Fbg: 262.8 mg/dL
  Ht: 38.9%
  Lym: 78.8%
  MCH: 20.7 pg
  MCHC: 35.3%
  MCV: 58.6 fL
  Mono: 2.8%
  Neu: 16%
  PT: 12.5 s
  Plat: 132.4 x10_4/uL
  RBC: 664.6 x10_4/ul
  Ret: 4.7%
  WBC: 110.5 x10_2/uL
  KIDNEY_L: 1.3 g
  KIDNEY_R: 1.3 g
  KIDNEY_TOTAL: 2.6 g
  LIVER: 22.8 g
  ALP: 1550.8 IU/L
  ALT: 45 IU/L
  AST: 64 IU/L
  BUN: 17.4 mg/dL
  CRE: 0.2 mg/dL
  Ca: 10.5 mg/dL
  Cl: 103.2 meq/L
  DBIL: 0.016 mg/dL
  GLC: 206.8 mg/dL
  IP: 7.4 mg/dL
  K: 3.8 meq/L
  LDH: 97.2 IU/L
  Na: 142.2 meq/L
  PL: 144.2 mg/dL
  RALB: 2.9 g/dL
  TBIL: 0.032 mg/dL
  TC: 67.2 mg/dL
  TG: 53.6 mg/dL
  TP: 6.2 g/dL
  gamma-GTP: 1.2 IU/L
[8]
  TERMINAL_BW: 373.2 g
  APTT: 16.3 s
  Bas: 0%
  Eos: 1%
  Fbg: 251.2 mg/dL
  Ht: 39.5%
  Lym: 76.8%
  MCH: 19.7 pg
  MCHC: 35.9%
  MCV: 54.9 fL
  Mono: 3.6%
  Neu: 18%
  PT: 12.2 s
  Plat: 118 x10_4/uL
  RBC: 720.4 x10_4/ul
  Ret: 2.7%
  WBC: 97.4 x10_2/uL
  KIDNEY_L: 1.4 g
  KIDNEY_R: 1.4 g
  KIDNEY_TOTAL: 2.9 g
  LIVER: 26.4 g
  ALP: 1413.8 IU/L
  ALT: 50.4 IU/L
  AST: 63.6 IU/L
  BUN: 17.6 mg/dL
  CRE: 0.2 mg/dL
  Ca: 11 mg/dL
  Cl: 103.8 meq/L
  DBIL: 0.014 mg/dL
  GLC: 188.6 mg/dL
  IP: 7.4 mg/dL
  K: 3.7 meq/L
  LDH: 115 IU/L
  Na: 143 meq/L
  PL: 155.2 mg/dL
  RALB: 3.1 g/dL
  TBIL: 0.048 mg/dL
  TC: 79.4 mg/dL
  TG: 63.4 mg/dL
  TP: 6.8 g/dL

Source: ChEMBL document CHEMBL3885861, “Open TG-GATES”
